Test results as given in patent US11365215B2, “Method for preventing, improving, or treating inflammatory bowel disease” (Research & Business Foundation Sungkyunkwan University, priority 2015, dated 2022).
Peptide text beside a SMILES is read from it.

Experiments:
Type in all cases: cell-based
AP-1 = assay: AP-1-Luc reporter luciferase assay in LPS-treated RAW 246.7 cells; settings: 25 μM for 30 minutes, LPS 100 ng/ml 2 hours
Method: RAW 246.7 macrophage cells were transfected with AP-1-Luc reporter plasmid as described in Example 2.3. After 24 hours, the transfected cells with AP-1-Luc reporter plasmid were pretreated with compound 1.1 (SEQ ID NO: 2) (100 nM), IRAK1/4 inhibitor (25 μM), and smaducin-6 (100 nM) for 30 minutes, and then further treated with LPS (100 ng/ml) for 2 hours.

NF-κB = assay: 5×NF-κB-Luc reporter luciferase assay in LPS-treated RAW 264.7 cells
Method: Specifically, 5×NF-κB-Luc reporter plasmid was transfected into RAW 264.7 cells using Effectene (Qiagen, USA). The transfected cells were pretreated with 100 nM of compound 1.1 (SEQ ID NO: 2) for 30 minutes, and further treated with LPS (100 ng/ml) for two hours, and luciferase activity in the cells was measured (FIG. 4 depicts a graph showing relative inhibition activities of compound 1.1 (SEQ ID NO: 2) and compound 1.2 to NF-κB activation). When the cells were treated with compound 1.1 (SEQ ID NO: 2) and compound 1.2 according to the present invention, activation of NF-κB, which was induced by LPS, was inhibited (FIG. 4).
In addition, 5×NF-κB-Luc reporter plasmid was transfected into RAW 264.7 macrophage cells and treated with compounds of the present invention, as described above. After 24 hours of the transfection, the cells were pretreated with DMSO (control), compound 1.1 (SEQ ID NO: 2), reference compound 1 (SEQ ID NO: 16) (compound where palmitic acid is removed from compound 1.1 (SEQ ID NO: 2)), and smaducin-6 were treated at various concentrations of 100 pM, 1 nM, and 100 nM for 30 minutes, and then the cells were treated with 100 ng/ml of LPS for two hours.
Specifically, 5×NF-κB-Luc reporter plasmid, SBE-Luc reporter plasmid, and BRE-Luc reporter plasmid were individually transfected into Raw 264.7 macrophage cells. After 24 hours, the cells transfected with the NF-κB-Luc reporter plasmid were treated with 100 ng/mL of LPS, the cells transfected with the SBE-Luc reporter plasmid were treated with 5 ng/mL of TFG-β1, and the cells transfected with the BRE-Luc reporter plasmid were treated with 100 ng/mL of BMP6 for two hours.
As described in Example 2.3, 5×NF-κB-Luc reporter plasmid was transfected into RAW 246.7 macrophage cells. After 24 hours, the cells transfected with NF-κB-Luc reporter plasmid were pretreated with compound 1.1 (SEQ ID NO: 2) (100 nM), interleukin-1-receptor-associated-kinase-1/4 inhibitor (IRAK1/4) inhibitor (25 μM, CAS 509093-47-4), and smaducin-6 (100 nM) for 30 minutes, and then further treated with LPS (100 ng/ml) for 2 hours. Subsequently, luciferase activities in the cells were measured.

[1] = tested on: MAPK signaling pathway proteins (ERK1/2, JNK, p38); assay: Western blot of MAPK signaling pathway protein phosphorylation in LPS-treated RAW 246.7 cells; settings: for phosphorylation of the MAPK signaling pathway proteins (ERK1/2, JNK, p38): 100 nM for 30 minutes, LPS 0, 0.5, 1 and 2 hours
Method: RAW 246.7 macrophage cells were pretreated with compound 1.1 (SEQ ID NO: 2), compound 1.2 and reference compound 1 (SEQ ID NO: 16) at a concentration of 100 nM for 30 minutes and then further treated with LPS for 0 hour, 0.5 hour, 1 hour and 2 hours. […] Changes of the concentration upon phosphorylation of each protein were measured by immunoblotting using anti-phosphorylation antibodies.
Specifically, RAW 246.7 macrophage cells were pretreated with DMSO, compound 1.1 (SEQ ID NO: 2) (100 nM), IRAK1/4 inhibitor (25 μM), and smaducin-6 (100 nM) for 30 minutes, and then further treated with LPS (100 ng/ml) for two hours.

interleukin-6 = assay: Suppression of LPS-induced IL-6 expression in RAW 264.7 macrophage cells (RT-PCR, Real-Time PCR); settings: pretreated 100 nM for 30 min, LPS two hours, compared to untreated sample
Method: First, RAW 264.7 macrophage cells were purchased from American Type Culture Collection (ATCC; Manassas, Va.), and were culture at a temperature of 37° C., under 5% CO2 atmosphere, using 10% Fetal Bovine Serum (FBS) and Dulbecco's Modified Eagle's Medium (DMEM) containing 1% penicillin/streptomycin.
The cultured RAW 264.7 macrophage cells were divided into a 6-well cell culture plate. After 24 hours, the cells were pretreated with compound 1.1 (SEQ ID NO: 2), compound 1.2, and smaducin-6, respectively, in a concentration of 100 nM for 30 min, and further treated with lipopolysaccharides (LPS) for two hours. These cells were collected using TRIzol® and the RNA was extracted. From 2 μg of the extracted RNA, cDNAs (complementary deoxyribonucleic acids) were synthesized and reverse transcription polymerase chain reactions (RT-PCR) and real-time polymerase chain reactions (Real-Time PCR) were performed. Samples from the RT-PCR were confirmed by electrophoresis on agarose gels and quantified using densitometer. A glyceraldehyde 3-phosphate dehydrogenase (GAPDH) gene was used as a loading control for the interleukin-6 gene.
RAW 264.7 macrophage cells were treated with varying concentrations of compound 1.1 (SEQ ID NO: 2) from 50 pM to 500 nM for 30 minutes, and treated with 100 ng/mL of LPS for two hours.

[2] = tested on: inflammatory signaling pathway protein complex mediated by MyD88 or RIP1; assay: Immunoprecipitation of inflammatory signaling pathway protein complex in LPS-treated RAW264.7 cells; settings: pretreated, then LPS
Text: Specifically, using antibodies corresponding to proteins which relate to the formation of Toll-like receptors (TLRs) signaling pathway protein complex (for example, IRAK1, TRAF6, MyD88, RIP1 and Pellino-1), disruption of the formation of inflammatory signaling pathway protein complexes was affirmed by immunoprecipitation. As reference control, a relative amount of expression of β-actin from the total cell lysate was compared and presented using Western blot.
RAW264.7 macrophage cells were individually retreated with compound 1.1 (SEQ ID NO: 2) and compound 1.2, and smaducin-6, and further treated with LPS. These RAW264.7 macrophage cells were collected, lysed in a lysis butter (PBS containing 0.5% Triton X-100, 20 mM HEPES (pH 7.4), 150 mM NaCl, 12.5 mM β-glycerol phosphate, 1.5 mM MgCl2, 10 mM NaF, 2 mM DTT, 1 mM Na3O4V, 2 mM EGTA, and 1 mM Protease Inhibitor (PMSF)), and centrifuged at 13000 rpm for 10 minutes. For immunoprecipitation assays, the supernatant was incubated at 4° C. for 12 hours, with protein-A agarose beads and the antibodies corresponding to the above proteins, and the beads were subsequently washed three times with the lysis buffer. The immunoprecipitated substances were dissociated from the beads with addition of 2× sample buffer, and were boiled. The prepared samples were loaded on SDS-polyacrylamide gel (FIG. 7).

[3] = biological target: T1, inflammatory signaling pathway complex mediated by MyD88 and RIP1 (Mus musculus, UniProt P22366+Q60855); assay: Immunoprecipitation/immunoblot of inflammatory signaling pathway complex in LPS-treated BMDM cells; settings: 100 pM, 1 nM, 100 nM, then 100 ng/mL LPS
T1 construct: endogenous in cells; host or cells: bone-marrow-derived macrophage (BMDM) cells
T1 sequence (P22366 whole entry): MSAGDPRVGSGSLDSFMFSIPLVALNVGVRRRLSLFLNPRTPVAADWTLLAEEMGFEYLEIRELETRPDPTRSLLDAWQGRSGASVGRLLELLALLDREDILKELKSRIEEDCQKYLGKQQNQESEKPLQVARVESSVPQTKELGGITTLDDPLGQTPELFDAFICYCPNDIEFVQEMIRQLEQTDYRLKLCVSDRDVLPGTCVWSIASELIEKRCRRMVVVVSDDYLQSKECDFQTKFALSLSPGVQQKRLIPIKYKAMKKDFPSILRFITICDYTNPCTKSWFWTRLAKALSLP
T1 sequence (Q60855 whole entry): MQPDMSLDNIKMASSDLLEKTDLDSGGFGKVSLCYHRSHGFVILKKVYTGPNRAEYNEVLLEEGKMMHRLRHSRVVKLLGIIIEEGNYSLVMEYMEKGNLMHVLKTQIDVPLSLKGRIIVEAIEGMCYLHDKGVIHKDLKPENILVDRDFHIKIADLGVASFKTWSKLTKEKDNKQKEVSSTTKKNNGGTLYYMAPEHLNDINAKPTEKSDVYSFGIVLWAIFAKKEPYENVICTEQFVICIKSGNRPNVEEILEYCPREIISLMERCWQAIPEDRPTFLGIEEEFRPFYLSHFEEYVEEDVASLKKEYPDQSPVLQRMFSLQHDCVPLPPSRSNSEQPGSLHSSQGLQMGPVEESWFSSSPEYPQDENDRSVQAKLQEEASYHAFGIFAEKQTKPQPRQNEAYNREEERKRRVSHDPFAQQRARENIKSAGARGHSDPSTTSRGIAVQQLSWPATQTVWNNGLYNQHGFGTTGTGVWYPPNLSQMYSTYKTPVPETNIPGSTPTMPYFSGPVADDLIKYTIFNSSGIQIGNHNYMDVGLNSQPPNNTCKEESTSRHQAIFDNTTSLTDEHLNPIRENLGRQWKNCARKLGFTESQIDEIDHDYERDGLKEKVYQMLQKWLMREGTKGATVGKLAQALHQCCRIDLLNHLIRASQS
Method: Bone-marrow-derived macrophage (BMDM) cells were individually pretreated with compound 1.1 (SEQ ID NO: 2), reference compound 1 (SEQ ID NO: 16), and smaducin-6 at various concentrations of 100 pM, 1 nM, and 100 nM, and then further treated with 100 ng/mL of LPS.

Row | Molecule | AP-1-Luc luciferase activity (MAPK signaling pathway) (AP-1) | NF-κB activation (luciferase activity) (NF-κB; 25 μM for 30 minutes, LPS 100 ng/ml 2 hours) | MAPK signaling pathway / phosphorylation of ERK, JNK, p38 ([1]; 25 μM for 30 minutes, LPS 100 ng/ml two hours) | expression of interleukin-6 induced by LPS treatment (interleukin-6) | formation of inflammatory signaling pathway protein complex mediated by MyD88 or RIP1 [2] | activation of NF-κB induced by LPS (luciferase activity) (NF-κB; 100 nM for 30 minutes, LPS 100 ng/ml two hours) | phosphorylation of the MAPK signaling pathway proteins (ERK1/2, JNK, p38) [1] | inhibition of the activity of NF-κB induced by LPS, dose dependence (NF-κB; 100 pM, 1 nM, 100 nM for 30 minutes, LPS 100 ng/ml two hours) | formation of inflammatory signaling pathway complex mediated by MyD88 and RIP1 [3]
1 | O=C(Nc1nc2ccccc2n1CCN1CCOCC1)c1cccc([N+](=O)[O-])c1 [IRAK1/4 inhibitor, reference compound] | inhibited MAPK signaling pathway | inhibited | suppressed at least one or more of MAPK signaling pathways | – | – | – | – | – | –
2 | CCCCCCCCCCCCCCCC(=O)N1CCC[C@H]1C(=O)NCC(=O)N[C@@H](Cc1ccc(O)cc1)C(=O)O [compound 1.2, (S)-3-(4-hydroxyphenyl)-2-(2-((S)-1-palmitoylpyrrolidine-2-carboxamido)acetamido)propanoic acid] (HELM PEPTIDE1{[CCCCCCCCCCCCCCCC(=O)[*:2]].P.G.Y}$$$$V2.0) | – | – | – | suppressed | disrupted | inhibited | did not inhibit phosphorylation | – | –
3 | reference compound 1: compound where palmitic acid is removed from compound 1.1 (SEQ ID NO: 2) (PPGY) [reference compound] | – | – | – | – | – | – | did not inhibit phosphorylation | not inhibited in dose dependent manner | formed the inflammatory signaling pathway complex
